Data as given in ChEMBL document CHEMBL1201862, “PubChem BioAssay data set” (2004).
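Grown in 96-well plates, cells were treated for 48 hours with each compound at five concentrations. Insufficient inhibition: endpoint recorded as highest concentration tested. The concentration for 50% growth inhibition is given as GI50.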 Active and inactive are the calls of the source. Cut-off read from the data, not from the text of the source: active = GI50 up to about 1.1 µM and inactive = higher.

Legend:
Test in all cases: NCI anticancer screen, dose series, 48 h
[1] = test system: ACHN
[2] = test system: HL-60
[3] = test system: IGROV-1
[4] = test system: M14
[5] = test system: Malme-3M
[6] = test system: NCI-H226
[7] = test system: OVCAR-5
[8] = test system: OVCAR-8
[9] = test system: PC-3
[10] = test system: SK-MEL-28
[11] = test system: SNB-19
[12] = test system: SR
[13] = test system: SW-620
[14] = test system: T47D
[15] = test system: U-251
[16] = test system: COLO 205
[17] = test system: HOP-92
[18] = test system: SF-295
[19] = test system: MCF7
[20] = test system: Hs-578T

Compound | GI50 [1] | GI50 [2] | GI50 [3] | GI50 [4] | GI50 [5] | GI50 [6] | GI50 [7] | GI50 [8] | GI50 [9] | GI50 [10] | GI50 [11] | GI50 [12] | GI50 [13] | GI50 [14] | GI50 [15] | GI50 [16] | GI50 [17] | GI50 [18] | GI50 [19] | GI50 [20]
O=C(/N=N/c1ccccc1Cl)NNc1ccccc1Cl | 28.1 µM (inactive) | 19.2 µM (inactive) | 20.4 µM (inactive) | 56.8 µM (inactive) | 67 µM (inactive) | > 100 µM (inactive) | 43.2 µM (inactive) | 27.6 µM (inactive) | 30 µM (inactive) | 69.7 µM (inactive) | 63.2 µM (inactive) | 27.5 µM (inactive) | 40.7 µM (inactive) | 30.5 µM (inactive) | 41.6 µM (inactive) | – | – | – | – | –
O=C1CCCC2COc3ccc(O)c1c32 (stereo not drawn) | > 100 µM (inactive) | > 100 µM (inactive) | > 100 µM (inactive) | > 100 µM (inactive) | > 100 µM (inactive) | > 100 µM (inactive) | > 100 µM (inactive) | > 100 µM (inactive) | – | > 100 µM (inactive) | > 100 µM (inactive) | > 100 µM (inactive) | – | – | > 100 µM (inactive) | > 100 µM (inactive) | > 100 µM (inactive) | > 100 µM (inactive) | – | –
C/C(=C1/N=C(c2cc([N+](=O)[O-])ccc2Cl)N(c2ccc(Br)cc2)C1=O)c1ccc(N(CCC#N)CCC#N)cc1C | 31.5 µM (inactive) | 16.2 µM (inactive) | 28.4 µM (inactive) | 13.6 µM (inactive) | 77.8 µM (inactive) | > 100 µM (inactive) | 50.9 µM (inactive) | 43.5 µM (inactive) | – | 49.5 µM (inactive) | 19.8 µM (inactive) | 7.98 µM (inactive) | 12.7 µM (inactive) | – | – | 32.2 µM (inactive) | 36.4 µM (inactive) | 79.3 µM (inactive) | – | –
CN(C)c1ccc(/C=N/Nc2nc3ccccc3c(=O)n2-c2ccccc2)cc1 | 67.3 µM (inactive) | > 100 µM (inactive) | > 100 µM (inactive) | 78 µM (inactive) | 43.1 µM (inactive) | > 100 µM (inactive) | > 100 µM (inactive) | 46.9 µM (inactive) | 55.1 µM (inactive) | > 100 µM (inactive) | 34.9 µM (inactive) | > 100 µM (inactive) | > 100 µM (inactive) | > 100 µM (inactive) | 34 µM (inactive) | > 100 µM (inactive) | 31 µM (inactive) | 93.1 µM (inactive) | > 100 µM (inactive) | –
C[N+](C)(C)CC(=O)N/N=C(/Cc1nc2ccc([N+](=O)[O-])cc2nc1O)C(=O)Nc1cc(C(F)(F)F)ccc1Cl | > 100 µM (inactive) | > 100 µM (inactive) | > 100 µM (inactive) | > 100 µM (inactive) | > 100 µM (inactive) | – | > 100 µM (inactive) | > 100 µM (inactive) | – | > 100 µM (inactive) | > 100 µM (inactive) | > 100 µM (inactive) | > 100 µM (inactive) | – | – | > 100 µM (inactive) | 62.1 µM (inactive) | > 100 µM (inactive) | – | –
CO[C@H](c1ccccc1)[C@H](C)N(C)c1ccc2ccccc2c1C1=NC(C)(C)CO1 | 16 µM (inactive) | 21.3 µM (inactive) | 33.1 µM (inactive) | 16.5 µM (inactive) | 16.3 µM (inactive) | 16.2 µM (inactive) | – | 13.8 µM (inactive) | – | 18.3 µM (inactive) | 24.8 µM (inactive) | 13.3 µM (inactive) | 15.9 µM (inactive) | – | 16 µM (inactive) | 13.8 µM (inactive) | 15.7 µM (inactive) | 15.5 µM (inactive) | – | –
CCOP(=O)(/C=C/n1cc(C)c(=O)[nH]c1=O)OCC | > 100 µM (inactive) | > 100 µM (inactive) | > 100 µM (inactive) | > 100 µM (inactive) | – | > 100 µM (inactive) | > 100 µM (inactive) | > 100 µM (inactive) | > 100 µM (inactive) | > 100 µM (inactive) | > 100 µM (inactive) | – | > 100 µM (inactive) | > 100 µM (inactive) | > 100 µM (inactive) | > 100 µM (inactive) | – | > 100 µM (inactive) | > 100 µM (inactive) | –
COc1ccc(C2CC(c3ccc(NS(=O)(=O)c4cc([N+](=O)[O-])ccc4C)cc3)=NN2S(=O)(=O)c2cc([N+](=O)[O-])ccc2C)cc1 (stereo not drawn) | 63.4 µM (inactive) | 51.6 µM (inactive) | 44.4 µM (inactive) | 41.1 µM (inactive) | 34.8 µM (inactive) | > 100 µM (inactive) | > 100 µM (inactive) | 71.9 µM (inactive) | 33.8 µM (inactive) | > 100 µM (inactive) | 61.2 µM (inactive) | 51.4 µM (inactive) | 72.9 µM (inactive) | 71.4 µM (inactive) | 36.8 µM (inactive) | 51.4 µM (inactive) | 34.3 µM (inactive) | 33 µM (inactive) | 39 µM (inactive) | –
Cc1ccc(C(=O)N/N=C(\N=N\c2ccccc2[N+](=O)[O-])c2ccc(N(C)C)cc2)cc1 | > 100 µM (inactive) | 84.9 µM (inactive) | > 100 µM (inactive) | > 100 µM (inactive) | – | > 100 µM (inactive) | > 100 µM (inactive) | > 100 µM (inactive) | > 100 µM (inactive) | > 100 µM (inactive) | > 100 µM (inactive) | 33.7 µM (inactive) | > 100 µM (inactive) | – | > 100 µM (inactive) | > 100 µM (inactive) | > 100 µM (inactive) | > 100 µM (inactive) | > 100 µM (inactive) | > 100 µM (inactive)
O=c1c(-c2cccc3ccccc23)c(-c2cccc3ccccc23)c1=O | 0.716 µM (active) | 0.721 µM (active) | 2.6 µM (inactive) | 2.24 µM (inactive) | 2.18 µM (inactive) | 2.32 µM (inactive) | 24.7 µM (inactive) | 2.81 µM (inactive) | – | 10.6 µM (inactive) | 1.48 µM (inactive) | 1.43 µM (inactive) | 0.33 µM (active) | – | 3.31 µM (inactive) | 0.363 µM (active) | 0.948 µM (active) | 0.446 µM (active) | – | –
O=[N+]([O-])c1ccc(CSc2nncc3[nH]cnc23)cc1 | 77.4 µM (inactive) | > 100 µM (inactive) | > 100 µM (inactive) | > 100 µM (inactive) | 66.8 µM (inactive) | > 100 µM (inactive) | > 100 µM (inactive) | > 100 µM (inactive) | > 100 µM (inactive) | > 100 µM (inactive) | – | > 100 µM (inactive) | > 100 µM (inactive) | > 100 µM (inactive) | > 100 µM (inactive) | > 100 µM (inactive) | 10.6 µM (inactive) | 65.2 µM (inactive) | > 100 µM (inactive) | –
CCOC(=O)CSc1nnc(CSc2nc(-c3ccccc3)c(-c3ccccc3)[nH]2)n1-c1ccccc1 | 18.3 µM (inactive) | 49.5 µM (inactive) | > 83 µM (inactive) | > 45 µM (inactive) | > 69.2 µM (inactive) | 42.3 µM (inactive) | > 59.2 µM (inactive) | 18.7 µM (inactive) | 20.7 µM (inactive) | > 58.7 µM (inactive) | > 100 µM (inactive) | 39.4 µM (inactive) | > 100 µM (inactive) | 26.7 µM (inactive) | > 100 µM (inactive) | > 58.2 µM (inactive) | 40.4 µM (inactive) | > 100 µM (inactive) | 66.4 µM (inactive) | –
O=NN(CCCl)C(=O)N[C@H]1CC[C@H](CC(=O)O)CC1 | > 100 µM (inactive) | 29.7 µM (inactive) | > 100 µM (inactive) | > 100 µM (inactive) | > 82.2 µM (inactive) | > 100 µM (inactive) | > 100 µM (inactive) | > 100 µM (inactive) | – | > 100 µM (inactive) | 59.3 µM (inactive) | 32.2 µM (inactive) | > 69.2 µM (inactive) | – | 33.2 µM (inactive) | > 100 µM (inactive) | > 100 µM (inactive) | 34.8 µM (inactive) | > 100 µM (inactive) | –
Cn1ccnc1CCc1c(Cl)cccc1Cl | > 100 µM (inactive) | > 100 µM (inactive) | > 100 µM (inactive) | > 100 µM (inactive) | > 100 µM (inactive) | > 100 µM (inactive) | > 100 µM (inactive) | > 100 µM (inactive) | – | > 100 µM (inactive) | – | > 100 µM (inactive) | > 100 µM (inactive) | – | > 100 µM (inactive) | > 100 µM (inactive) | 52.1 µM (inactive) | > 100 µM (inactive) | – | –
CCOC(=O)c1c[nH]c2c(ccc3nn(C)nc32)c1=O | > 100 µM (inactive) | 57.3 µM (inactive) | > 100 µM (inactive) | > 100 µM (inactive) | > 100 µM (inactive) | > 100 µM (inactive) | > 100 µM (inactive) | > 100 µM (inactive) | – | > 100 µM (inactive) | > 100 µM (inactive) | 84.1 µM (inactive) | 20.1 µM (inactive) | – | 25.8 µM (inactive) | 38.3 µM (inactive) | > 100 µM (inactive) | > 100 µM (inactive) | – | –
Cc1c(Cl)c2ccccc2n1S(=O)(=O)c1ccccc1 | 38.1 µM (inactive) | 25.8 µM (inactive) | > 100 µM (inactive) | 37.8 µM (inactive) | > 100 µM (inactive) | 37 µM (inactive) | 33.5 µM (inactive) | 52.6 µM (inactive) | – | > 100 µM (inactive) | 78.7 µM (inactive) | 32.1 µM (inactive) | 38.5 µM (inactive) | – | 88.9 µM (inactive) | > 100 µM (inactive) | 15.7 µM (inactive) | 46.5 µM (inactive) | – | –
